Experimental data taken from patent publication US20250034167A1, “HETEROCYCLIC COMPOUNDS AND METHODS OF USE” (AMGEN INC., priority 2021, published 2025).

target: His-tagged KRAS G12D protein (Homo sapiens, UniProt P01116, G12D); assay: biochemical
Sequence (P01116 1-188 isoform P01116-2 G12D): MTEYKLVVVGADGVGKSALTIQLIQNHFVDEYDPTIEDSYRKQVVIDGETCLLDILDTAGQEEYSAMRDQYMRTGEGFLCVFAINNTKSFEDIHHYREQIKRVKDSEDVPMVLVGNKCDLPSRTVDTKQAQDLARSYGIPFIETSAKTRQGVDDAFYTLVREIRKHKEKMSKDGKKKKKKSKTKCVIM

IC50 [µM]	SMILES
0.006	CCc1c(F)ccc2cc(O)cc(-c3ncc4c(N5C[C@@H](C(N)=O)CC[C@H]5C)nc(OC[C@@]56CCCN5C[C@H](F)C6)nc4c3F)c12 (relative stereo) [Example 64, rel-(3S,6R)-1-(7-(8-Ethyl-7-fluoro-3-hydroxynaphthalen-1-yl)-8-fluoro-2-(((2R,7aS)-2-fluorotetrahydro-1H-pyrrolizin-7a(5H)-yl)methoxy)pyrido[4,3-d]pyrimidin-4-yl)-6-methylpiperidine-3-carboxamide]
0.004	CCc1c(F)ccc2cc(O)cc(-c3ncc4c(N5CC[C@H]6CNC(=O)[C@H]6C5)nc(OC[C@@]56CCCN5C[C@H](F)C6)nc4c3F)c12 (relative stereo) [Example 103, rel-(3aR,7aR)-5-(7-(8-Ethyl-7-fluoro-3-hydroxynaphthalen-1-yl)-8-fluoro-2-(((2R,7aS)-2-fluorotetrahydro-1H-pyrrolizin-7a(5H)-yl)methoxy)pyrido[4,3-d]pyrimidin-4-yl)octahydro-3H-pyrrolo[3,4-c]pyridin-3-one]
0.006	CCc1c(F)ccc2cc(O)cc(-c3ncc4c(N5CC6CCC(C(N)=O)(C6)C5)nc(OC[C@@]56CCCN5C[C@H](F)C6)nc4c3F)c12 (relative stereo) [Example 121, 3-(7-(8-Ethyl-7-fluoro-3-hydroxynaphthalen-1-yl)-8-fluoro-2-(((2R,7aS)-2-fluorotetrahydro-1H-pyrrolizin-7a(5H)-yl)methoxy)pyrido[4,3-d]pyrimidin-4-yl)-3-azabicyclo[3.2.1]octane-1-carboxamide]
0.047	CCc1c(F)ccc2cc(O)cc(-c3ncc4c(N5C6CCC(C(N)=O)C5CC6)nc(OC[C@@]56CCCN5C[C@H](F)C6)nc4c3F)c12 (relative stereo) [Example 123, rac-(15,5S)-8-(7-(8-Ethyl-7-fluoro-3-hydroxynaphthalen-1-yl)-8-fluoro-2-(((2R,7aS)-2-fluorotetrahydro-1H-pyrrolizin-7a(5H)-yl)methoxy)pyrido[4,3-d]pyrimidin-4-yl)-8-azabicyclo[3.2.1]octane-2-carboxamide]
0.335	CCC1CCCc2cc(O)cc(-c3ncc4c(N5CCC[C@@](C)(O)C5)nc(OC[C@@]56CCCN5C[C@H](F)C6)nc4c3F)c21 (single isomer, unassigned) [Example 174]
0.033	CCc1c(F)ccc2cc(O)cc(-c3ncc4c(N5CC6CC5CCC6O)nc(OCC56CCCN5C[C@H](F)C6)nc4c3F)c12 (stereo in doubt) [Example 155, 6-(7-(8-Ethyl-7-fluoro-3-hydroxy-naphthalen-1-yl)-8-fluoro-2-(((2R,7aS)-2-fluorotetrahydro-1H-pyrrolizin-7a(5H)-yl)methoxy)pyrido[4,3-d]pyrimidin-4-yl)-6-azabicyclo[3.2.1] octan-2-ol]
0.036	CCc1cccc2cc(O)cc(-c3ncc4c(N5C6CCC5C(C)(O)CC6)nc(OC[C@@]56CCCN5C[C@H](F)C6)nc4c3F)c12 (stereo partly drawn) [Example 69, 8-(7-(8-Ethyl-3-hydroxynaphthalen-1-yl)-8-fluoro-2-(((2R,7aS)-2-fluorotetrahydro-1H-pyrrolizin-7a(5H)-yl)methoxy)pyrido[4,3-d]pyrimidin-4-yl)-2-methyl-8-azabicyclo[3.2.1]octan-2-ol]
0.032	CCc1c(F)ccc2cc(O)cc(-c3ncc4c(N5C6CCC5C(C)(O)CC6)nc(OC[C@@]56CCCN5C[C@H](F)C6)nc4c3F)c12 (stereo partly drawn) [Example 70, 8-(7-(8-Ethyl-7-fluoro-3-hydroxynaphthalen-1-yl)-8-fluoro-2-(((2R,7aS)-2-fluorotetrahydro-1H-pyrrolizin-7a(5H)-yl)methoxy)pyrido[4,3-d]pyrimidin-4-yl)-2-methyl-8-azabicyclo[3.2.1]octan-2-ol]

The next lines start with the compound.

SMILES	IC50 [µM]
CCc1c(F)ccc2cc(O)cc(-c3ncc4c(N5C[C@H]6OCC[C@H]65)nc(OC[C@@]56CCCN5C[C@H](F)C6)nc4c3F)c12 (relative stereo) [Example 21, rel-4-(4-((1R,5R)-2-Oxa-6-azabicyclo[3.2.0]heptan-6-yl)-8-fluoro-2-(((2R,7aS)-2-fluorotetrahydro-1H-pyrrolizin-7a(5H)-yl)methoxy)pyrido[4,3-d]pyrimidin-7-yl)-5-ethyl-6-fluoronaphthalen-2-ol]	0.032
CCc1c(F)ccc2cc(O)cc(-c3ncc4c(N5CC6CNC(=O)C6C5)nc(OC[C@@]56CCCN5C[C@H](F)C6)nc4c3F)c12 (relative stereo) [Example 61, rel-(3aR,6aS)-5-(7-(8-Ethyl-7-fluoro-3-hydroxynaphthalen-1-yl)-8-fluoro-2-(((2R,7aS)-2-fluorotetrahydro-1H-pyrrolizin-7a(5H)-yl)methoxy)pyrido[4,3-d]pyrimidin-4-yl)hexahydropyrrolo[3,4-c]pyrrol-1(2H)-one]	0.005
CCc1c(F)ccc2cc(O)cc(-c3ncc4c(N5CCC6OCCC6C5)nc(OC[C@@]56CCCN5C[C@H](F)C6)nc4c3F)c12 (relative stereo) [Example 62, 5-Ethyl-6-fluoro-4-(8-fluoro-2-(((2R,7aS)-2-fluorotetrahydro-1H-pyrrolizin-7a(5H)-yl)methoxy)-4-rel-((3aR,7aS)-hexahydrofuro[3,2-c]pyridin-5(4H)-yl)pyrido[4,3-d]pyrimidin-7-yl)naphthalen-2-ol]	0.04
CCc1c(F)ccc2cc(O)cc(-c3ncc4c(N5CCC[C@H]6NC(=O)C[C@H]65)nc(OC[C@@]56CCCN5C[C@H](F)C6)nc4c3F)c12 (relative stereo) [Example 63, rel-(3aR,7aR)-4-(7-(8-Ethyl-7-fluoro-3-hydroxynaphthalen-1-yl)-8-fluoro-2-(((2R,7aS)-2-fluorotetrahydro-1H-pyrrolizin-7a(5H)-yl)methoxy)pyrido[4,3-d]pyrimidin-4-yl)octahydro-2H-pyrrolo[3,2-b]pyridin-2-one]	0.039
CCc1c(F)ccc2cc(O)cc(-c3ncc4c(N5CC6CC(O)C(C6)C5)nc(OC[C@@]56CCCN5C[C@H](F)C6)nc4c3F)c12 (single isomer, unassigned) [Example 25]	0.011
CCc1c(F)ccc2cc(O)cc(-c3ncc4c(N5CC6CC(O)C(C6)C5)nc(OC[C@@]56CCCN5C[C@H](F)C6)nc4c3F)c12 (single isomer, unassigned) [Example 26]	0.004
CCc1c(F)ccc2cc(O)cc(-c3ncc4c(N5CCC5C(N)=O)nc(OC[C@@]56CCCN5C[C@H](F)C6)nc4c3F)c12 (stereo partly drawn) [Example 5, 1-(7-(8-Ethyl-7-fluoro-3-hydroxynaphthalen-1-yl)-8-fluoro-2-(((2R,7aS)-2-fluorotetrahydro-1H-pyrrolizin-7a(5H)-yl)methoxy)pyrido[4,3-d]pyrimidin-4-yl)azetidine-2-carboxamide]	0.019
CCc1c(F)ccc2cc(O)cc(-c3ncc4c(N5C[C@@H]6COC[C@@H]65)nc(OC[C@@]56CCCN5C[C@H](F)C6)nc4c3F)c12 [Example 20, 4-(4-((1S,5R)-3-Oxa-6-azabicyclo[3.2.0]heptan-6-yl)-8-fluoro-2-(((2R,7aS)-2-fluorotetrahydro-1H-pyrrolizin-7a(5H)-yl)methoxy)pyrido[4,3-d]pyrimidin-7-yl)-5-ethyl-6-fluoronaphthalen-2-ol]	0.039
CCc1c(F)ccc2cc(O)cc(-c3ncc4c(N5CC(O)CC(C)(C)C5)nc(OC[C@@]56CCCN5C[C@H](F)C6)nc4c3F)c12 (some centres unmarked) [Example 32]	0.009
CCc1c(F)ccc2cc(O)cc(-c3ncc4c(N5C6CCC(O)C5CC6)nc(OC[C@@]56CCCN5C[C@H](F)C6)nc4c3F)c12 (stereo partly drawn) [Example 34, 8-(7-(8-Ethyl-7-fluoro-3-hydroxynaphthalen-1-yl)-8-fluoro-2-(((2R,7aS)-2-fluorotetrahydro-1H-pyrrolizin-7a(5H)-yl)methoxy)pyrido[4,3-d]pyrimidin-4-yl)-8-azabicyclo[3.2.1]octan-2-ol 2,2,2-trifluoroacetate]	0.054
CCc1c(F)ccc2cc(O)cc(-c3ncc4c(N5CC[C@H](C)[C@@H](O)C5)nc(OC[C@@]56CCCN5C[C@H](F)C6)nc4c3F)c12 [Example 35, (3R,4S)-1-(7-(8-Ethyl-7-fluoro-3-hydroxynaphthalen-1-yl)-8-fluoro-2-(((2R,7aS)-2-fluorotetrahydro-1H-pyrrolizin-7a(5H)-yl)methoxy)pyrido[4,3-d]pyrimidin-4-yl)-4-methyl-piperidin-3-ol]	0.025
CCc1c(F)ccc2cc(O)cc(-c3ncc4c(N5CC6CCOC6C5)nc(OC[C@@]56CCCN5C[C@H](F)C6)nc4c3F)c12 (stereo partly drawn) [Example 37, 5-Ethyl-6-fluoro-4-(8-fluoro-2-(((2R,7aS)-2-fluorotetrahydro-1H-pyrrolizin-7a(5H)-yl)methoxy)-4-(hexahydro-5H-furo[2,3-c]pyrrol-5-yl)pyrido[4,3-d]pyrimidin-7-yl)naphthalen-2-ol]	0.042
CCc1c(F)ccc2cc(O)cc(-c3ncc4c(N5CC(C(N)=O)CC(C)(C)C5)nc(OC[C@@]56CCCN5C[C@H](F)C6)nc4c3F)c12 (stereo partly drawn) [Example 43, 1-(7-(8-Ethyl-7-fluoro-3-hydroxynaphthalen-1-yl)-8-fluoro-2-(((2R,7aS)-2-fluorotetrahydro-1H-pyrrolizin-7a(5H)-yl)methoxy)pyrido[4,3-d]pyrimidin-4-yl)-5,5-dimethylpiperidine-3-carboxamide]	0.004
C#Cc1c(F)ccc2cccc(-c3ncc4c(N5CCC[C@@](C)(O)C5)nc(OC[C@@]56CCCN5C[C@H](F)C6)nc4c3F)c12 [Example 50, (R)-1-(7-(8-Ethynyl-7-fluoronaphthalen-1-yl)-8-fluoro-2-(((2R,7aS)-2-fluorotetrahydro-1H-pyrrolizin-7a(5H)-yl)methoxy)pyrido[4,3-d]pyrimidin-4-yl)-3-methylpiperidin-3-ol]	0.008
CCc1c(F)ccc2cc(O)cc(-c3ncc4c(N5CC6CC(O)C5C6)nc(OC[C@@]56CCCN5C[C@H](F)C6)nc4c3F)c12 (stereo partly drawn) [Example 51, 2-(7-(8-Ethyl-7-fluoro-3-hydroxynaphthalen-1-yl)-8-fluoro-2-(((2R,7aS)-2-fluorotetrahydro-1H-pyrrolizin-7a(5H)-yl)methoxy)pyrido[4,3-d]pyrimidin-4-yl)-2-azabicyclo[2.2.1]heptan-6-ol]	0.025
